Reference: patent US20230416261A1, “ETHANEDIAMINE-HETEROCYCLE DERIVATIVES AS INHIBITORS OF PROTEIN ARGININE METHYLTRANSFERASES” (Board of Regents, The University of Texas System, priority 2021, published 2023)

Columns and labels:
[1] = system: PATC53 cells; test: PATC53 Long Term Phenotypic Assay (14 days, crystal violet viability); type: cell-based; conditions: 336 h
Summary of the method: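 Cells seeded at 250 per well, allowed 24 h to settle, then treated with 1:3 serial dilutions of compound for 14 days at 37 °C, 5% CO2. Viability measured by crystal violet staining, solubilised in 10% HOAc, absorbance 590 nm; IC50 from four-parameter logistic fit.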

[2] = system: DOHH2 cells; test: DOHH2 Long Term Phenotypic Assay (7 days, Cell Titer-Glo viability); type: cell-based; conditions: Homo sapiens, DOHH-2, 168 h, Cell Titer-Glo 2.0
Summary of the method: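 DOHH2 lymphoma cells (250 per well) in RPMI-1640 with 10% FBS were exposed to 1:3 serially diluted compounds for 7 days at 37 °C, 5% CO2. Viability was read by CellTiter-Glo 2.0 luminescence, and IC50 values came from four-parameter logistic fits.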

[3] = target: T1, PRMT1 (Homo sapiens, UniProt Q99873); test: PRMT1 Enzymatic Assay (LANCE TR-FRET, methylation of histone H4 at Arg3); type: biochemical; design: purchased SignalChem P365-380G; conditions: PRMT1 1.5 nM, SAM 1 μM, biotinylated histone H4 (1-21) 25 nM; read-out: PRMT-1 IC50
Summary of the method: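 PRMT1 (1.5 nM) preincubated 15 min with compound at room temperature, then reacted 1 h with 1 μM SAM and 25 nM biotinylated histone H4 (1-21) in 50 mM Hepes pH 8, 1 mM TCEP, 0.003% Tween-20. H4R3me detected by TR-FRET (665/620 nm ratio); IC50 from four-parameter logistic fit.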

[4] = target: T1, PRMT1; test: PRMT1 RKO Cellular Target Engagement Assay (In-Cell Western, asymmetric di-methyl arginine); type: cell-based; conditions: RKO cells, 48 hr compound incubation; read-out: RKO IC50 (PRMT-1 Target Engagement)
Summary of the method: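 RKO cells (1,000/well) received 1:3 serially diluted compound for 48 h at 37 °C, then were fixed, permeabilised and immunostained for asymmetric di-methyl arginine by In-Cell Western. The 800 nm antibody signal was normalised to CellTag 700 nm; IC50 from four-parameter logistic fit.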

T1 sequence (Q99873 whole entry): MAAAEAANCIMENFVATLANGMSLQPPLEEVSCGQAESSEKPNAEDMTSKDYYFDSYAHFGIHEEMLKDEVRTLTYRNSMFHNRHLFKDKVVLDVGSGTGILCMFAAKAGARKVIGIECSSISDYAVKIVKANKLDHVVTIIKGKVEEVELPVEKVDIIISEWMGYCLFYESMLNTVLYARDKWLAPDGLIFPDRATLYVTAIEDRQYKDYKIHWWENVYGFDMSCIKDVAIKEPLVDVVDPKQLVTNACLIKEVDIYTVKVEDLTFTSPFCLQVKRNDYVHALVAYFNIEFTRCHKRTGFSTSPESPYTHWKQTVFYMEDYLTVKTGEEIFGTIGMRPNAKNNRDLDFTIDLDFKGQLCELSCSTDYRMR

Structure (SMILES) | IC50 [1] [nM] | IC50 [2] [nM] | IC50 [3] [nM] | IC50 [4] [nM]
CNCCN(C)Cc1nn2c(c1C1CCC(COC)(COC)CC1)CN(C(=O)C(C)C(F)(F)F)CC2 (stereo not drawn) [Example 68, 1-(3-(4,4-bis(methoxy-methyl)cyclohexyl)-2-((methyl(2-(methylamino)-ethyl)amino)methyl)-6,7-dihydropyrazolo[1,5-a]-pyrazin-5(4H)-yl)-3,3,3-trifluoro-2-methylpropan-1-one] | 41 | 71 | 121 | 128
CNCCN(C)Cc1nn2c(c1C1CCC(COC)(COC)CC1)CN(C(=O)C1CCCO1)CC2 (stereo not drawn) [Example 32, (3-(4,4-bis(methoxymethyl)-cyclohexyl)-2-((methyl(2-(methylamino)ethyl)amino)-methyl)-6,7-dihydropyrazolo-[1,5-a]pyrazin-5(4H)-yl)-(tetrahydrofuran-2-yl)-methanone] | 163 | 160 | 46 | 293
CNCCN(C)Cc1nn2c(c1C1CCC(COC)(COC)CC1)CN(C(=O)C1CCCC1)CC2 [Example 33, (3-(4,4-bis(methoxymethyl)-cyclohexyl)-2-((methyl(2-(methylamino)ethyl)amino)-methyl)-6,7-dihydropyrazolo-[1,5-a]pyrazin-5(4H)-yl)-(cyclopentyl)methanone] | 55 | 83 | 55 | 120
COCC1(COC)CCC(c2c(CN(C)CCN)nn3c2CN(C(=O)C2CCCC2)CC3)CC1 [Example 42, (2-(((2-aminoethyl)(methyl)-amino)methyl)-3-(4,4-bis-(methoxymethyl)cyclohexyl)-6,7-dihydropyrazolo[1,5-a]-pyrazin-5(4H)-yl)-(cyclopentyl)methanone] | 136 | 180 | 29 | 431
CNCCN(C)Cc1nn2c(c1C1CCC(COC)(COC)CC1)CN(C(=O)C(C)(C)C)CC2 [Example 8, 1-(3-(4,4-bis(methoxy-methyl)cyclohexyl)-2-((methyl(2-(methylamino)-ethyl)amino)methyl)-6,7-dihydropyrazolo[1,5-a]-pyrazin-5(4H)-yl)-2,2-dimethylpropan-1-one] | 100 | 67 | 36 | 913
CNCCN(C)Cc1nn2c(c1C1CCC(COC)(COC)CC1)CN(C(=O)CC1CC1)CC2 [Example 27, 1-(3-(4,4-bis(methoxy-methyl)cyclohexyl)-2-((methyl(2-(methylamino)-ethyl)amino)methyl)-6,7-dihydropyrazolo[1,5-a]-pyrazin-5(4H)-yl)-2-cyclopropylethan-1-one] | 115 | 79 | 59 | 318
CNCCN(C)Cc1nn2c(c1C1CCC(COC)(COC)CC1)CN(C(=O)C1(C#N)CCC1)CC2 [Example 41, 1-(3-(4,4-bis(methoxy-methyl)cyclohexyl)-2-((methyl(2-(methylamino)-ethyl)amino)methyl)-4,5,6,7-tetrahydropyrazolo[1,5-a]-pyrazine-5-carbonyl)cyclobutane-1-carbonitrile] | 175 | 91 | 72 | 180
COCC1(COC)CCC(c2c(CN(C)CCN)nn3c2CN(C(=O)C2(F)CC2)CC3)CC1 [Example 47, (2-(((2-aminoethyl)(methyl)-amino)methyl)-3-(4,4-bis-(methoxymethyl)cyclohexyl)-6,7-dihydropyrazolo[1,5-a]-pyrazin-5(4H)-yl)(1-fluorocyclopropyl)methanone] | 45 | 187 | 15 | 671
CNCCN(C)Cc1nn2c(c1C1CCC(COC)(COC)CC1)CN(C(=O)C1CC(F)(F)C1)CC2 [Example 53, (3-(4,4-bis(methoxymethyl)-cyclohexyl)-2-((methyl(2-(methylamino)ethyl)amino)-methyl)-6,7-dihydropyrazolo-[1,5-a]pyrazin-5(4H)-yl)(3,3-difluorocyclobutyl)-methanone] | 42 | 87 | 68 | 1110
CNCCN(C)Cc1nn2c(c1C1CCC(COC)(COC)CC1)CN(C(=O)C(C)C#N)CC2 (stereo not drawn) [Example 38, 3-(3-(4,4-bis(methoxy-methyl)cyclohexyl)-2-((methyl(2-(methylamino)-ethyl)amino)methyl)-6,7-dihydropyrazolo[1,5-a]-pyrazin-5(4H)-yl)-2-methyl-3-oxopropanenitrile] | 580 | 83 | 103 | 690
CNCCN(C)Cc1nn2c(c1C1CCC(COC)(COC)CC1)CN(C(=O)C13CC(C)(C1)C3)CC2 [Example 63, (3-(4,4-bis(methoxymethyl)-cyclohexyl)-2-((methyl(2-(methylamino)ethyl)amino)-methyl)-6,7-dihydropyrazolo-[1,5-a]pyrazin-5(4H)-yl)(3-methylbicyclo[1.1.1]pentan-1-yl)methanone] | 16 | 67 | 44 | 610
CCOCC1(COCC)CCC(c2c(CN(C)CCNC)nn3c2CN(C(=O)C2CC2)CC3)CC1 [Example 4, (3-(4,4-bis(ethoxymethyl)-cyclohexyl)-2-((methyl(2-(methylamino)ethyl)amino)-methyl)-6,7-dihydropyrazolo-[1,5-a]pyrazin-5(4H)-yl)-(cyclopropyl)methanone] | 1260 | 47 | 48 | 110
